Consider 18 compounds from patent US6303785A, “Compounds having activity as inhibitors of cytochrome P450RAI” (Allergan Sales, Inc., priority 2000, dated 2001).

In one data set the test system is skin of hairless mice. As to the kind of experiment: Topical Skin Irritation Test (cutaneous toxicity / Blackjack score). The note with it: topical once daily days 1-5, mean±SD, range 0-21. It is filed as in vivo, hairless mouse (Cr1:SKH1-hrBR). From the text:
Mice were housed individually throughout the dosing period.
Doses are disclosed as nmol/25 g.
The grading scale used is as follows:
Values can range from 0-9.
Values can range from 0-8.

Data set [1] addresses T1, RARβ (Homo sapiens, UniProt P10826).
T1 sequence (P10826 1-455): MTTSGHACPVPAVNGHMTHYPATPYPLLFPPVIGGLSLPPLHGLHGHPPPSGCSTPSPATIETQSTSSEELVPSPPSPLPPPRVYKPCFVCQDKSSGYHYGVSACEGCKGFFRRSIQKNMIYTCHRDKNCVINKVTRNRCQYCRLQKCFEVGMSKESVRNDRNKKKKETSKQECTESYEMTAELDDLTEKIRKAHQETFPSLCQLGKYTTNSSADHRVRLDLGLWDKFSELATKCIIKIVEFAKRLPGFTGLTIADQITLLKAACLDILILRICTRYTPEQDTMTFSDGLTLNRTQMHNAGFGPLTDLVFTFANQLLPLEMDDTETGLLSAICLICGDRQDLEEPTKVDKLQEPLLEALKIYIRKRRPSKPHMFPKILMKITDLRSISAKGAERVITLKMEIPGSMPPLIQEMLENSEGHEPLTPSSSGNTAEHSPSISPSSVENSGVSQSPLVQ
The data set can be described thus: ligand binding assay, RARβ. The note with it: read-out: RAR Kd β. From the text:
(§1) Assays described below measure the ability of a compound to bind to, and/or activate various retinoid receptor subtypes. When in these assays a compound binds to a given receptor subtype and activates the transcription of a reporter gene through that subtype, then the compound is considered an agonist of that receptor subtype. […] In the below described assays the ability of the compounds to bind to RARα, […], RARγ, […] and RXRγ receptors, and the ability or inability of the compounds to activate transcription of a reporter gene through these receptor subtypes can be tested.
(§2) The results obtained in this assay are expressed in EC50 numbers, as they are also in the chimeric receptor transactivation assay. The results of ligand binding assay are expressed in Kd numbers.

For the next data set, the system named is human skin. The following applies: known; cited from earlier work.
The next data set deals with psoriasis. The note with it: prior art; cited from earlier work.
The subject of the next data set is RARγ. The data set can be described thus: chimeric receptor transactivation assay, RARγ. The note with it: read-out: RAR EC50 γ. The format is cell-based.
Excerpt: as §1, §2

Data set [2] concerns RARβ. As to the kind of experiment: chimeric receptor transactivation assay, RARβ. The format is cell-based. The following applies: read-out: RAR EC50 β.
Excerpt: as §1, §2

What is called Kd is the constant that tells how readily two partners part at equilibrium. By EC50 is commonly meant the concentration needed to bring the measured effect to its halfway point.

Consider `CC1(C)CC2(CC2)Oc2c(C3CC3)cc(C#Cc3ccc(CC(=O)O)c(F)c3)cc21` [Compound 50, 4-[(8-Cyclopropyl-3,4-dihydro-4,4-dimethylspiro[2H-1-benzopyran-2,1'-cyclopropane]-6-yl)ethynyl]-2-fluoro-benzeneacetic acid], for which the “Cutaneous Toxicity Score (Blackjack Score)” value (“Cutaneous Toxicity Score” below) in the data set with skin of hairless mice (100 nmole (per 25 g)) stood at 1 ± 0; in the data set on skin of hairless mice (300 nmole (per 25 g)), 3 ± 2; in the data set on skin of hairless mice (1000 nmole (per 25 g)), 8 ± 2.

Turning to `CC1(C)CCC(=O)c2ccc(C#Cc3ccc(CC(=O)O)cc3)cc21` [Compound 5, 4-[(8,8-Dimethyl1-5-oxo-5,6,7,8-tetrahydro-naphthalene-2-yl-ethynyl)-phenyl]-acetic acid], the “Cutaneous Toxicity Score” value with skin of hairless mice (100 nmole (per 25 g)) turned out to be 0; in the data set with skin of hairless mice (1000 nmole (per 25 g)), 6 ± 3.

`CC1(C)CCC(=O)c2ccc(C#Cc3ccc(CC(=O)O)c(F)c3)cc21` [Compound 15, [2-Fluoro-4-(8,8-dimethyl-5-oxo-5,6,7,8-tetrahydro-naphthalene-2-yl-ethynl)phenyl]-acetic acid]: the results for the “Cutaneous Toxicity Score” value in the data set on skin of hairless mice (100 nmole (per 25 g)) and in the data set with skin of hairless mice (1000 nmole (per 25 g)) were 1 ± 1 and 5 ± 2, respectively.

On to `CC1(C)CC2(CC2)Oc2c(C3CC3)cc(C(=O)Oc3ccc(CC(=O)O)cc3)cc21` [Compound 58, Spiro[2H-1-benzopyran-2,1'-cyclopropane]-6-carboxylic acid, 8-cyclopropyl-3,4-dihydro-4,4-dimethyl-, 4-(carboxymethyl)phenyl ester], for which the “Cutaneous Toxicity Score” value in the data set with skin of hairless mice (100 nmole (per 25 g)), with skin of hairless mice (300 nmole (per 25 g)) and in the data set with skin of hairless mice (1000 nmole (per 25 g)) was 0 ± 0 throughout.

Turning to `CN(C1CC1)C1CCC(C)(C)c2cc(C#Cc3ccc(CC(=O)O)c(F)c3)ccc21` (centres unmarked) [Compound 18, [4-(5-(Cyclopropyl-methyl-amino)-8,8-dimethyl-5,6,7,8-tetrahydro-naphthalene-2-yl-ethynyl)-2-fluoro-phenyl]-acetic acid], the figures for the “Cutaneous Toxicity Score” value in the data set on skin of hairless mice (100 nmole (per 25 g)), with skin of hairless mice (300 nmole (per 25 g)) and in the data set on skin of hairless mice (1000 nmole (per 25 g)) were 0 ± 0, 5 ± 2 and 10 ± 2, respectively.

For the compound `CC1(C)CC(C)(C)c2cc(C#Cc3ccc(CC(=O)O)cc3)cc(C3CC3)c2O1` [Compound 36, [4-(8-Cyclopropyl-2,2,4,4-tetramethyl-chroman-6-yl-ethynyl)phenyl]acetic acid], the “Cutaneous Toxicity Score” value in the data set with skin of hairless mice (100 nmole (per 25 g)) is 1 ± 1; in the data set with skin of hairless mice (1000 nmole (per 25 g)) it was 11 ± 0.

Consider `O=C(O)c1ccc(C#Cc2ccc(C3(N(Cc4ccccc4)Cc4ccccc4)CC3)cc2)cc1` [Compound 114], for which the Kd on RARβ [1] is over 10 nM.

`CC1(C)CC2(CC2)Oc2c(C3CC3)cc(C#Cc3ccc(CC(=O)O)cc3)cc21` [Compound 48, Benzeneacetic acid, 4-[(8-cyclopropyl-3,4-dihydro-4,4-dimethylspiro[2H 1-benzopyran-2.1'-cyclopropane]-6-yl)ethanyl]-]: the “Cutaneous Toxicity Score” value turned out to be 1 ± 1 with skin of hairless mice (100 nmole (per 25 g)), 3 ± 1 in the data set on skin of hairless mice (300 nmole (per 25 g)) and 7 ± 2 with skin of hairless mice (1000 nmole (per 25 g)).

On to `CN(C1CC1)C1CCC(C)(C)c2cc(C#Cc3ccc(CC(=O)O)cc3)ccc21` (centres unmarked) [Compound 8, 4-[(5-(Cyclopropyl-methyl-amino)-8,8-dimethyl-5,6,7,8-tetrahydro-naphthalene-2-yl-ethynyl)-phenyl]-acetic acid], for which the “Cutaneous Toxicity Score” value with skin of hairless mice (100 nmole (per 25 g)) came out at 5 ± 2; with skin of hairless mice (300 nmole (per 25 g)), 8 ± 3; with skin of hairless mice (1000 nmole (per 25 g)), 12 ± 1.

Regarding `CC1(C)CC(C)(C)c2cc(C#Cc3ccc(CC(=O)O)c(F)c3)cc(C3CC3)c2O1` [Compound 38, [4(8-Cyclopropyl-2,2,4,4tetramethyl-chroman-6-yl-ethynyl)-2-fluoro-phenyl]acetic acid], the “Cutaneous Toxicity Score” value was determined as 1 ± 1 in the data set with skin of hairless mice (100 nmole (per 25 g)) and 10 ± 1 with skin of hairless mice (1000 nmole (per 25 g)).

As to `CCOC(=O)/C=C(C)/C=C/C=C(C)/C=C/c1c(C)cc(OC)c(C)c1C` [etretinate], in the data set on human skin, the “skin irritation in humans (in words)” value was “substantial skin irritation”.

For `Clc1cccc(C(c2ccc3[nH]cnc3c2)n2ccnc2)c1` (centres unmarked) [liarozole], the “retinoid-like effect of treatment (in words)” value in the data set with psoriasis is recorded as “amelioration of psoriasis”.

Consider `CCc1cc(C#Cc2ccc(C(=O)O)cc2)ccc1C1(OCc2ccccc2)CC1` [Compound 93, 4-[4-(1-Benzyloxycyclopropyl)-3-ethyl-phenylethynyl]-benzoic acid], for which the EC50 in the data set on RARγ stood at 10 nM; in the data set on RARβ [2], 20 nM.

Take `CC1(C)CN(C2CC2)Cc2ccc(C#Cc3ccc(CC(=O)O)c(F)c3)cc21` [Compound 22, [4-(2-Cyclopropyl-4,4-dimethyl-1 2,3,4-tetrahydro-isoquinolin-6-yl-ethynyl)-2-fluoro-phenyl]-acetic acid]: the “Cutaneous Toxicity Score” value was found to be 0 ± 0 with skin of hairless mice (100 nmole (per 25 g)), 0 ± 0 in the data set with skin of hairless mice (300 nmole (per 25 g)) and 1 ± 1 with skin of hairless mice (1000 nmole (per 25 g)).

As to `CC1(C)CCC(=O)c2ccc(C#Cc3ccc(C(=O)O)c(F)c3)cc21` [Compound 10, 2-Fluoro-4(8,8dimethyl-5-oxo-5,6,7,8-tetrahydro-naththalen-2yl-ethynyl)benzoic acid], the EC50 in the data set with RARγ was 6 nM; in the data set on RARβ [2], 0.3 nM.

In the case of `CC1=C(/C=C/C(C)=C/C=C/C(C)=C\C(=O)O)C(C)(C)CCC1` [13-cis RA], the “skin irritation in humans (in words)” value in the data set with human skin is listed as “substantial skin irritation”.

On to `CC1=C(/C=C/C(C)=C/C=C/C(C)=C/C(=O)O)C(C)(C)CCC1` [ATRA, all-trans-retinoic acid], for which the “skin irritation in humans (in words)” value with human skin is given as “substantial skin irritation”.

In the case of `CC1(C)CCC(n2ccnc2)c2ccc(C#Cc3ccc(CC(=O)O)cc3)cc21` (centres unmarked) [Compound 137, [4-(5-Imidazol-1-yl-8,8-dimethyl-5,6,7,8-tetrahydro-naphthalen-2-yl-ethynyl)-phenyl]-acetic acid], the “Cutaneous Toxicity Score” value turned out to be 1 ± 1 in the data set with skin of hairless mice (100 nmole (per 25 g)), 1 ± 1 in the data set on skin of hairless mice (300 nmole (per 25 g)) and 5 ± 2 in the data set on skin of hairless mice (1000 nmole (per 25 g)).
